The IC50 is the point on the concentration scale where inhibition reaches its midpoint.

Each structure is given as a SMILES string. Active and inactive are the calls of the source. No cut-off for these calls is given here.

This passage reports Activity, IC50 and viability results from ChEMBL document CHEMBL5236648, “Improved synthesis of deoxyalpinoid B and quantification of antileishmanial activity of deoxyalpinoid B and sulforaphane” (Bioorg Med Chem, 2023).

Data set [1] deals with Leishmania donovani. Nature of the data set: Induction of oxidative stress in Leishmania donovani MHOM/IN/Dd8 promastigotes assessed as increase in intracellular ROS level at 10 to 50 uM incubated for 24 hrs by H2DCFA fluorescent probe based flow cytometry analysis. Particulars: dose 10-50 µM. It counts as functional, organism-based. (In general: A flow cytometer gives signals particle by particle.)

For data set [2], the system named is Leishmania donovani. Nature of the data set: Antileishmanial activity against Leishmania donovani MHOM/IN/Dd8 promastigotes assessed as inhibition of promastigotes growth incubated for 48 hrs by MTT assay. The data set is classed as functional, organism-based. Particulars: MHOM/IN/Dd8, 48 h.
The subject of data set [3] is THP-1. Put plainly: Induction of oxidative stress in human THP-1 cells assessed as increase in intracellular ROS level at 10 uM incubated for 1 hr by H2DCFA fluorescent probe based flow cytometry analysis. The data set is classed as functional, cell-based.
The subject of data set [4] is Leishmania donovani. Nature of the data set: Antileishmanial activity against Leishmania donovani MHOM/IN/Dd8 promastigotes infected in PMA-differentiated human THP-1 cells assessed as increase in Hes family transcription factor 7 gene expression at 10 uM incubated for 18 hrs by RNA-seq analysis. The data set is classed as functional, organism-based.
The test system of data set [5] is Leishmania donovani. Nature of the data set: Antileishmanial activity against Leishmania donovani MHOM/IN/Dd8 promastigotes infected in PMA-differentiated human THP-1 cells assessed as increase in heat shock protein A6 expression at 10 uM incubated for 18 hrs by RNA-seq analysis. The data set is classed as functional, organism-based.
Data set [6] relates to Leishmania donovani. Nature of the data set: Antileishmanial activity against Leishmania donovani MHOM/IN/Dd8 promastigotes assessed as promastigotes viability at 50 uM incubated for 48 hrs by MTT assay relative to control. The data set is classed as functional. On the technique in general: Formazan colour is commonly taken as a measure of viable cells.
The test system of data set [7] is Leishmania donovani. Put plainly: Induction of oxidative stress in Leishmania donovani MHOM/IN/Dd8 promastigotes assessed as increase in mitochondrial superoxide level at 10 to 50 uM incubated for 24 hrs by Mito sox based flow cytometry analysis. It counts as functional, organism-based. Particulars: dose 10-50 µM.
Data set [8] deals with Leishmania donovani. Put plainly: Antileishmanial activity against Leishmania donovani MHOM/IN/Dd8 promastigotes assessed as promastigotes viability at 10 uM incubated for 48 hrs by MTT assay relative to control. It counts as functional.
Data set [9] is described as follows: Cytotoxicity against human THP-1 cells assessed as cell viability at 5 uM incubated for 48 hrs by MTT assay relative to control. It counts as toxicity, cell-based. The following applies: read-out: Activity.
In data set [10] the test system is THP-1. Put plainly: Cytotoxicity against human THP-1 cells assessed as reduction in cell viability at 50 to 100 uM incubated for 48 hrs by MTT assay. The data set is classed as toxicity, cell-based. Particulars: thp-1, 48 h, dose 50-100 µM.
Data set [11] relates to Leishmania infantum. Put plainly: Antileishmanial activity against Leishmania infantum MHOM/TN/80/IPT-1 promastigotes assessed as inhibition of promastigotes growth incubated for 48 hrs by MTT assay. Particulars: MHOM/TN/80/IPT-1, 48 h. The data set is classed as functional, organism-based.
Data set [12] has as its system Leishmania donovani. Nature of the data set: Antileishmanial activity against Leishmania donovani MHOM/IN/Dd8 promastigotes infected in PMA-differentiated human THP-1 cells assessed as increase in heat shock protein A7 expression at 10 uM incubated for 18 hrs by RNA-seq analysis. It counts as functional, organism-based.
Data set [13] in a line: Cytotoxicity against human THP-1 cells assessed as cell viability at 10 uM incubated for 48 hrs by MTT assay relative to control. It counts as toxicity, cell-based. The following applies: read-out: Activity.
Data set [14] relates to Leishmania donovani. Nature of the data set: Antileishmanial activity against Leishmania donovani MHOM/IN/Dd8 metacyclic promastigotes infected in PMA-differentiated human THP-1 cells assessed as reduction in amastigotes formation at 10 uM incubated for 48 hrs by DAPI staining based inverted microscopic analysis. The data set is classed as functional, organism-based.
In data set [15] the test system is Leishmania donovani. Put plainly: Antileishmanial activity against Leishmania donovani MHOM/IN/Dd8 promastigotes infected in PMA-differentiated human THP-1 cells assessed as activation of neuroactive ligand-receptor interactions at 10 uM incubated for 18 hrs by KEGG analysis. The data set is classed as functional, organism-based.
Data set [16] deals with THP-1. Put plainly: Induction of oxidative stress in human THP-1 cells assessed as increase in intracellular ROS level at 0.5 uM incubated for 1 hr by H2DCFA fluorescent probe based flow cytometry analysis. It counts as functional, cell-based.
The test system of data set [17] is Leishmania donovani. Nature of the data set: Antileishmanial activity against Leishmania donovani MHOM/IN/Dd8 metacyclic promastigotes infected in PMA-differentiated human THP-1 cells assessed as reduction in number of amastigotes per 100 cell at 0.5 uM incubated for 48 hrs by DAPI staining based inverted microscopic analysis. The data set is classed as functional, organism-based.

Data set [18] in a line: Cytotoxicity against human THP-1 cells assessed as cell viability at 50 to 100 uM incubated for 48 hrs by MTT assay relative to control.

In the case of `COc1cc(CC/C=C/C(=O)CCc2ccccc2)ccc1O`, the outcome in [1], in data set [3], in data set [4], in [5], in [7] and in data set [12] was Active. In addition, the outcome in data set [14] and in data set [15] was Active. In addition, the half-inhibitory concentration (IC50) in data set [2] was determined as 21.4 µM; in [11] it was 22 µM. Besides, the Activity in data set [6] is reported as <10%; in [8] it was 43%; in data set [10], “Toxic”. The viability at 48 h, 5 µM in data set [9] turned out to be 79%. Also, the viability at 48 h, 10 µM in [13] was determined as 76%.

In the case of `C[C@@H]1[C@H](O)[C@@H](C)/C=C/C=C/C=C/C=C/C=C/C=C/C=C/[C@H](O[C@@H]2O[C@H](C)[C@@H](O)[C@H](N)[C@@H]2O)C[C@@H]2O[C@](O)(C[C@@H](O)C[C@@H](O)[C@H](O)CC[C@@H](O)C[C@@H](O)CC(=O)O[C@H]1C)C[C@H](O)[C@H]2C(=O)O`, the outcome in data set [16] was inactive. For the same compound, in [17], the outcome was Active.

Turning to `C[S+]([O-])CCCCN=C=S` (stereo unspecified) [SULFORAPHANE], the figures for the IC50 in data set [2] and in data set [11] were 23.3 µM and 16.5 µM, respectively. Further, the result in [3] and in [15] was Active. For the same compound, the Activity is reported as <10% in data set [6] and 57% in data set [8]. For the same compound, in data set [9], the viability at 48 h, 5 µM was 84%. Also, in data set [18], the viability at 48 h, 100 µM was < 45%. Besides, the viability at 48 h, 10 µM in data set [13] was 76%.
